According to ChEMBL document CHEMBL4808193, “[11]-Chaetoglobosins from Pseudeurotium bakeri Induce G2/M Cell Cycle Arrest and Apoptosis in Human Cancer Cells” (J Nat Prod, 2021):

Key:
A-427 [1] = test: Induction of apoptosis in human A-427 cells assessed as early apoptotic cells at 4 uM measured after 24 hrs by Annexin V-FITC/propidium iodide staining based flow cytometric analysis (reference value: 4.50%); format: functional
L02 = test: Cytotoxicity against human L02 cells assessed as reduction in cell viability by MTT assay; format: cell-based
MCF7 [2] = test: Cell cycle arrest in human MCF7 cells assessed as accumulation at G2/M phase at 10 uM measured after 24 hrs by PI staining based flow cytometry (reference value: 14.79%); format: functional
A-427 [3] = test: Induction of apoptosis in human A-427 cells assessed as early apoptotic cells at 6 uM measured after 24 hrs by Annexin V-FITC/propidium iodide staining based flow cytometric analysis (reference value: 4.50%); format: functional
A-427 [4] = test: Cytotoxicity against human A-427 cells assessed as reduction in cell viability by MTT assay; format: functional, cell-based
MCF7 [5] = test: Induction of apoptosis in human MCF7 cells assessed as late apoptotic cells at 10 uM measured after 24 hrs by Annexin V-FITC/propidium iodide staining based flow cytometric analysis (reference value: 0.76%); format: functional
HCT-116 = test: Cytotoxicity against human HCT-116 cells assessed as reduction in cell viability by MTT assay; format: functional, cell-based
A-427 [6] = test: Cell cycle arrest in human A-427 cells assessed as accumulation at S phase at 4 uM measured after 24 hrs by PI staining based flow cytometry (reference value: 37.30%); format: functional
A-427 [7] = test: Cell cycle arrest in human A-427 cells assessed as accumulation at G2/M phase at 2 uM measured after 24 hrs by PI staining based flow cytometry (reference value: 17.34%); format: functional
MCF7 [8] = test: Cell cycle arrest in human MCF7 cells assessed as accumulation at G0/G1 phase at 15 uM measured after 24 hrs by PI staining based flow cytometry (reference value: 62.38%); format: functional
A-427 [9] = test: Cell cycle arrest in human A-427 cells assessed as accumulation at G0/G1 phase at 4 uM measured after 24 hrs by PI staining based flow cytometry (reference value: 45.36%); format: functional
MCF7 [10] = test: Cell cycle arrest in human MCF7 cells assessed as accumulation at S phase at 5 uM measured after 24 hrs by PI staining based flow cytometry (reference value: 22.83%); format: functional
A-427 [11] = test: Induction of apoptosis in human A-427 cells assessed as early apoptotic cells at 2 uM measured after 24 hrs by Annexin V-FITC/propidium iodide staining based flow cytometric analysis (reference value: 4.50%); format: functional
A-427 [12] = test: Induction of apoptosis in human A-427 cells assessed as late apoptotic cells at 6 uM measured after 24 hrs by Annexin V-FITC/propidium iodide staining based flow cytometric analysis (reference value: 1.70%); format: functional
A-427 [13] = test: Induction of apoptosis in human A-427 cells assessed as late apoptotic cells at 2 uM measured after 24 hrs by Annexin V-FITC/propidium iodide staining based flow cytometric analysis (reference value: 1.70%); format: functional
MCF7 [14] = test: Induction of apoptosis in human MCF7 cells assessed as late apoptotic cells at 5 uM measured after 24 hrs by Annexin V-FITC/propidium iodide staining based flow cytometric analysis (reference value: 0.76%); format: functional
A-427 [15] = test: Cell cycle arrest in human A-427 cells assessed as accumulation at G0/G1 phase at 6 uM measured after 24 hrs by PI staining based flow cytometry (reference value: 45.36%); format: functional
MCF7 [16] = test: Cell cycle arrest in human MCF7 cells assessed as accumulation at S phase at 15 uM measured after 24 hrs by PI staining based flow cytometry (reference value: 22.83%); format: functional
A-427 [17] = test: Cell cycle arrest in human A-427 cells assessed as accumulation at S phase at 6 uM measured after 24 hrs by PI staining based flow cytometry (reference value: 37.30%); format: functional
MCF7 [18] = test: Cell cycle arrest in human MCF7 cells assessed as accumulation at G0/G1 phase at 5 uM measured after 24 hrs by PI staining based flow cytometry (reference value: 62.38%); format: functional
A-427 [19] = test: Cell cycle arrest in human A-427 cells assessed as accumulation at G2/M phase at 6 uM measured after 24 hrs by PI staining based flow cytometry (reference value: 17.34%); format: functional
MCF7 [20] = test: Cytotoxicity against human MCF7 cells assessed as reduction in cell viability by MTT assay; format: functional, cell-based
HT-29 = test: Cytotoxicity against human HT-29 cells assessed as reduction in cell viability by MTT assay; format: functional, cell-based
HeLa = test: Cytotoxicity against human HeLa cells assessed as reduction in cell viability by MTT assay; format: functional, cell-based
A549 = test: Cytotoxicity against human A549 cells assessed as reduction in cell viability by MTT assay; format: functional, cell-based
MCF7 [21] = test: Cell cycle arrest in human MCF7 cells assessed as accumulation at G2/M phase at 15 uM measured after 24 hrs by PI staining based flow cytometry (reference value: 14.79%); format: functional
A-427 [22] = test: Cell cycle arrest in human A-427 cells assessed as accumulation at S phase at 2 uM measured after 24 hrs by PI staining based flow cytometry (reference value: 37.30%); format: functional
MCF7 [23] = test: Cell cycle arrest in human MCF7 cells assessed as accumulation at G0/G1 phase at 10 uM measured after 24 hrs by PI staining based flow cytometry (reference value: 62.38%); format: functional
A-427 [24] = test: Cell cycle arrest in human A-427 cells assessed as accumulation at G0/G1 phase at 2 uM measured after 24 hrs by PI staining based flow cytometry (reference value: 45.36%); format: functional
MCF7 [25] = test: Induction of apoptosis in human MCF7 cells assessed as early apoptotic cells at 10 uM measured after 24 hrs by Annexin V-FITC/propidium iodide staining based flow cytometric analysis (reference value: 2.97%); format: functional
A-427 [26] = test: Induction of apoptosis in human A-427 cells assessed as late apoptotic cells at 4 uM measured after 24 hrs by Annexin V-FITC/propidium iodide staining based flow cytometric analysis (reference value: 1.70%); format: functional
A-427 [27] = test: Cell cycle arrest in human A-427 cells assessed as accumulation at G2/M phase at 4 uM measured after 24 hrs by PI staining based flow cytometry (reference value: 17.34%); format: functional
MCF7 [28] = test: Induction of apoptosis in human MCF7 cells assessed as early apoptotic cells at 5 uM measured after 24 hrs by Annexin V-FITC/propidium iodide staining based flow cytometric analysis (reference value: 2.97%); format: functional
MCF7 [29] = test: Cell cycle arrest in human MCF7 cells assessed as accumulation at S phase at 10 uM measured after 24 hrs by PI staining based flow cytometry (reference value: 22.83%; format: functional
MCF7 [30] = test: Induction of apoptosis in human MCF7 cells assessed as early apoptotic cells at 15 uM measured after 24 hrs by Annexin V-FITC/propidium iodide staining based flow cytometric analysis (reference value: 2.97%); format: functional
MCF7 [31] = test: Induction of apoptosis in human MCF7 cells assessed as late apoptotic cells at 15 uM measured after 24 hrs by Annexin V-FITC/propidium iodide staining based flow cytometric analysis (reference value: 0.76%); format: functional
HepG2 = test: Cytotoxicity against human HepG2 cells assessed as reduction in cell viability by MTT assay; format: functional, cell-based
MCF7 [32] = test: Cell cycle arrest in human MCF7 cells assessed as accumulation at G2/M phase at 5 uM measured after 24 hrs by PI staining based flow cytometry (reference value: 14.79%); format: functional

`CC1=C[C@@H]2/C=C/C[C@H](C)CC(=O)/C=C/C(=O)[C@]23C(=O)N[C@@H](Cc2c[nH]c4ccccc24)[C@@H]3[C@@H]1C` gave an Activity (A-427 [1]) of 19.74%, an IC50 (L02) of 36.3 µM and an Activity (MCF7 [2]) of 51.9%. It also gave an Activity (A-427 [3]) of 24.44%, an IC50 (A-427 [4]) of 4.8 µM and an Activity (MCF7 [5]) of 6.99%. For the same compound, the IC50 (HCT-116) was 12.2 µM, the Activity (A-427 [6]) was 16.28% and the Activity (A-427 [7]) was 36.13%. It also gave an Activity (MCF7 [8]) of 36.2%, an Activity (A-427 [9]) of 36.51% and an Activity (MCF7 [10]) of 8.32%. For the same compound, the Activity (A-427 [11]) was 8.26%, the Activity (A-427 [12]) was 29.64% and the Activity (A-427 [13]) was 14.29%. It also gave an Activity (MCF7 [14]) of 5.79%, an Activity (A-427 [15]) of 33.91% and an Activity (MCF7 [16]) of 8.11%. It also gave an Activity (A-427 [17]) of 16.51%, an Activity (MCF7 [18]) of 49.01% and an Activity (A-427 [19]) of 49.58%. It also gave an IC50 (MCF7 [20]) of 6.5 µM, an IC50 (HT-29) of 8.9 µM and an IC50 (HeLa) of 8.6 µM. For the same compound, the IC50 (A549) was 9.5 µM, the Activity (MCF7 [21]) was 55.69% and the Activity (A-427 [22]) was 19.88%. The Activity (MCF7 [23]) was 40.98%, the Activity (A-427 [24]) was 43.99% and the Activity (MCF7 [25]) was 19.17%. It also gave an Activity (A-427 [26]) of 25.77%, an Activity (A-427 [27]) of 47.21% and an Activity (MCF7 [28]) of 11.22%. For the same compound, the Activity (MCF7 [29]) was 7.12%, the Activity (MCF7 [30]) was 32.79% and the Activity (MCF7 [31]) was 13.22%. For the same compound, the IC50 (HepG2) was 9.1 µM and the Activity (MCF7 [32]) was 42.67%.
